Data set [1] can be described thus: Spectroscopic properties of the BDM library (absorbance and emission maxima). In kind it is physicochemical.
Data set [2] can be described thus: Quantum yield measurements. In kind it is physicochemical. To be noted: referred to Rhodamine B in EtOH, excitation 510 nm, emission integrated 540-800 nm. On the procedure:
Quantum yields were calculated by measuring the integrated emission area of the fluorescent spectra, and referring them to the area measured for Rhodamine B in EtOH after excitation at 510 nm (ΦRho-B=0.70). Quantum yields for the BDM products were then calculated using equation below, where F represents the area of fluorescent emission, n is reflective index of the solvent, and Abs is absorbance at excitation wavelength selected for standards and samples. Emission was integrated from 540 nm to 800 nm.

Take `COc1cc(/C=C/c2cc(C)c3n2[B-](F)(F)[N+]2=CC=CC2=C3CCN)cc(OC)c1OC` [BDM-1]: in data set [1], the “λmax (ABS)” value was 561 nm and the “λmax (EM)” value is listed as 586 nm. In data set [2], the “φ (quantum yield)” value was found to be 0.21.
In the same order, the values of `Cc1cc(/C=C/c2ccc(N(C)C)cc2)n2c1C(CCN)=C1C=CC=[N+]1[B-]2(F)F` [BDM-2] are 607 nm, 685 nm and 0.01.
In the case of `Cc1cc(/C=C/c2ccc(N(C)CCC#N)cc2)n2c1C(CCN)=C1C=CC=[N+]1[B-]2(F)F` [BDM-3], in data set [1], the “λmax (ABS)” value was determined as 600 nm and the “λmax (EM)” value turned out to be 683 nm. The “φ (quantum yield)” value in data set [2] came to 0.05.
Take `Cc1cc(/C=C/c2ccc(OCc3ccccc3)c(OCc3ccccc3)c2)n2c1C(CCN)=C1C=CC=[N+]1[B-]2(F)F` [BDM-4]: in data set [1], the “λmax (ABS)” value stood at 566 nm and the “λmax (EM)” value is recorded as 590 nm. The “φ (quantum yield)” value in data set [2] stood at 0.42.
Turning to `Cc1cc(/C=C/c2ccc(-c3ccccc3)cc2)n2c1C(CCN)=C1C=CC=[N+]1[B-]2(F)F` [BDM-5], in data set [1], the “λmax (ABS)” value turned out to be 561 nm and the “λmax (EM)” value is 575 nm. Besides, in data set [2], the “φ (quantum yield)” value came to 0.50.
The matching figures for `Cc1cc(/C=C/c2c3ccccc3cc3ccccc23)n2c1C(CCN)=C1C=CC=[N+]1[B-]2(F)F` [BDM-6]: 536 nm, 682 nm and 0.12.
The matching figures for `COc1ccc(/C=C/c2cc(C)c3n2[B-](F)(F)[N+]2=CC=CC2=C3CCN)cc1OCc1ccccc1` [BDM-7]: 566 nm, 591 nm and 0.37.
`Cc1cc(/C=C/c2ccc(-n3ccnc3)cc2)n2c1C(CCN)=C1C=CC=[N+]1[B-]2(F)F` [BDM-8]: in data set [1], the “λmax (ABS)” value was determined as 561 nm and the “λmax (EM)” value was found to be 575 nm. Besides, the “φ (quantum yield)” value in data set [2] was 0.34.
Regarding `Cc1cccc(/C=C/c2cc(C)c3n2[B-](F)(F)[N+]2=CC=CC2=C3CCN)c1` [BDM-9], in data set [1], the “λmax (ABS)” value was determined as 554 nm and the “λmax (EM)” value is given as 567 nm. Besides, the “φ (quantum yield)” value in data set [2] stood at 0.33.
In the same order, the values of `Cc1cc(/C=C/c2ccc(Cl)cc2)n2c1C(CCN)=C1C=CC=[N+]1[B-]2(F)F` [BDM-12] are 556 nm, 567 nm and 0.32.
`Cc1cc(/C=C/c2ccc(N(c3ccccc3)c3ccccc3)cc2)n2c1C(CCN)=C1C=CC=[N+]1[B-]2(F)F` [BDM-14]: in data set [1], the “λmax (ABS)” value is 593 nm and the “λmax (EM)” value worked out at 624 nm. In data set [2], the “φ (quantum yield)” value turned out to be 0.02.
The matching figures for `Cc1cc(/C=C/c2cc(C)c3n2[B-](F)(F)[N+]2=CC=CC2=C3CCN)cc(C)c1OCc1ccccc1` [BDM-16]: 561 nm, 574 nm and 0.14.
Consider `CCCCN(CCCC)c1ccc(/C=C/C2=[N+]3C(=C(CCN)c4cccn4[B-]3(F)F)C(C)=C2)cc1` [BDM-17], for which, in data set [1], the “λmax (ABS)” value is listed as 622 nm and the “λmax (EM)” value amounted to 695 nm. Also, the “φ (quantum yield)” value in data set [2] is 0.03.
In the same order, the values of `CSc1ccc(/C=C/c2cc(C)c3n2[B-](F)(F)[N+]2=CC=CC2=C3CCN)cc1` [BDM-18] are 567 nm, 588 nm and 0.33.
In the same order, the values of `Cc1cc(/C=C/c2ccc(C(C)C)cc2)n2c1C(CCN)=C1C=CC=[N+]1[B-]2(F)F` [BDM-19] are 555 nm, 569 nm and 0.71.
For `CC1=CC(/C=C/c2cccc(Oc3ccccc3)c2)=[N+]2C1=C(CCN)c1cccn1[B-]2(F)F` [BDM-20], in data set [1], the “λmax (ABS)” value was determined as 554 nm and the “λmax (EM)” value stood at 564 nm. Also, the “φ (quantum yield)” value in data set [2] was 0.47.
The matching figures for `Cc1cc(/C=C/c2ccco2)n2c1C(CCN)=C1C=CC=[N+]1[B-]2(F)F` [BDM-22]: 567 nm, 584 nm and 0.14.
For the molecule `CC1=CC(/C=C/c2ccccc2)=[N+]2C1=C(CCN)c1cccn1[B-]2(F)F` [BDM-27], in data set [1], the “λmax (ABS)” value was 553 nm and the “λmax (EM)” value is given as 566 nm. Further, the “φ (quantum yield)” value in data set [2] stood at 0.39.
In the case of `Cc1cc(/C=C/c2ccc(-c3cccs3)s2)n2c1C(CCN)=C1C=CC=[N+]1[B-]2(F)F` [BDM-30], in data set [1], the “λmax (ABS)” value came to 596 nm and the “λmax (EM)” value was determined as 634 nm. Besides, in data set [2], the “φ (quantum yield)” value came to 0.11.
The matching figures for `COc1ccc(/C=C/c2cc(C)c3n2[B-](F)(F)[N+]2=CC=CC2=C3CCN)c2ccccc12` [BDM-32]: 576 nm, 624 nm and 0.25.
In the same order, the values of `Cc1ccc(O)c(/C=C/c2cc(C)c3n2[B-](F)(F)[N+]2=CC=CC2=C3CCN)c1` [BDM-33] are 564 nm, 580 nm and 0.14.
For the molecule `Cc1ccc2cccc(/C=C/c3cc(C)c4n3[B-](F)(F)[N+]3=CC=CC3=C4CCN)c2c1` [BDM-34], in data set [1], the “λmax (ABS)” value worked out at 547 nm and the “λmax (EM)” value came to 581 nm. For the same molecule, the “φ (quantum yield)” value in data set [2] stood at 0.65.
For `Cc1cc(/C=C/c2ccc(C)c3ccccc23)n2c1C(CCN)=C1C=CC=[N+]1[B-]2(F)F` [BDM-36], in data set [1], the “λmax (ABS)” value is listed as 568 nm and the “λmax (EM)” value is reported as 595 nm. The “φ (quantum yield)” value in data set [2] is reported as 0.23.
In the same order, the values of `CC1=CC(/C=C/c2csc3ccccc23)=[N+]2C1=C(CCN)c1cccn1[B-]2(F)F` [BDM-37] are 566 nm, 588 nm and 0.15.
The matching figures for `COc1ccc(/C=C/c2cc(C)c3n2[B-](F)(F)[N+]2=CC=CC2=C3CCN)c(Cl)c1O` [BDM-38]: 565 nm, 579 nm and 0.06.
`Cc1cc(/C=C/c2ccccc2-c2ccccc2)n2c1C(CCN)=C1C=CC=[N+]1[B-]2(F)F` [BDM-40]: in data set [1], the “λmax (ABS)” value is listed as 554 nm and the “λmax (EM)” value is 567 nm. The “φ (quantum yield)” value in data set [2] turned out to be 0.53.
In the same order, the values of `COc1ccc(Oc2cccc(/C=C/c3cc(C)c4n3[B-](F)(F)[N+]3=CC=CC3=C4CCN)c2)cc1` [BDM-42] are 554 nm, 563 nm and 0.25.
In the same order, the values of `Cc1cc(/C=C/c2cc(C(C)(C)C)ccc2O)n2c1C(CCN)=C1C=CC=[N+]1[B-]2(F)F` [BDM-43] are 564 nm, 579 nm and 0.21.
For `CCCCCCOc1ccc(/C=C/c2cc(C)c3n2[B-](F)(F)[N+]2=CC=CC2=C3CCN)cc1` [BDM-45], in data set [1], the “λmax (ABS)” value was 564 nm and the “λmax (EM)” value was 583 nm. Besides, the “φ (quantum yield)” value in data set [2] came out at 0.74.
As for `CCCCOc1ccc(/C=C/c2cc(C)c3n2[B-](F)(F)[N+]2=CC=CC2=C3CCN)cc1` [BDM-46], in data set [1], the “λmax (ABS)” value is given as 564 nm and the “λmax (EM)” value is 583 nm. Moreover, in data set [2], the “φ (quantum yield)” value stood at 0.53.
Turning to `C=CCOc1ccc(/C=C/c2cc(C)c3n2[B-](F)(F)[N+]2=CC=CC2=C3CCN)cc1` [BDM-48], in data set [1], the “λmax (ABS)” value came to 563 nm and the “λmax (EM)” value is 583 nm. In addition, the “φ (quantum yield)” value in data set [2] turned out to be 0.83.
Turning to `Cc1cc(/C=C/c2ccc(C=O)cc2)n2c1C(CCN)=C1C=CC=[N+]1[B-]2(F)F` [BDM-49], in data set [1], the “λmax (ABS)” value came to 562 nm and the “λmax (EM)” value amounted to 572 nm. For the same molecule, the “φ (quantum yield)” value in data set [2] was found to be 0.24.
Regarding `CCOc1ccc(/C=C/c2cc(C)c3n2[B-](F)(F)[N+]2=CC=CC2=C3CCN)cc1OCC` [BDM-53], in data set [1], the “λmax (ABS)” value was 568 nm and the “λmax (EM)” value was determined as 600 nm. The “φ (quantum yield)” value in data set [2] was 0.46.
Consider `COc1ccc(Br)cc1/C=C/c1cc(C)c2n1[B-](F)(F)[N+]1=CC=CC1=C2CCN` [BDM-54], for which, in data set [1], the “λmax (ABS)” value is listed as 559 nm and the “λmax (EM)” value was 573 nm. Moreover, the “φ (quantum yield)” value in data set [2] worked out at 0.52.
As to `COc1ccc2ccccc2c1/C=C/C1=[N+]2C(=C(CCN)c3cccn3[B-]2(F)F)C(C)=C1` [BDM-61], in data set [1], the “λmax (ABS)” value was 576 nm and the “λmax (EM)” value was found to be 610 nm. In addition, in data set [2], the “φ (quantum yield)” value is listed as 0.22.
In the same order, the values of `COc1ccc(/C=C/C2=[N+]3C(=C(CCN)c4cccn4[B-]3(F)F)C(C)=C2)cc1OC` [BDM-62] are 567 nm, 594 nm and 0.43.
The matching figures for `CCOc1ccc(/C=C/C2=[N+]3C(=C(CCN)c4cccn4[B-]3(F)F)C(C)=C2)cc1OC` [BDM-63]: 568 nm, 597 nm and 0.54.
In the same order, the values of `CC1=CC(/C=C/c2ccc(-c3ccccc3)s2)=[N+]2C1=C(CCN)c1cccn1[B-]2(F)F` [BDM-65] are 589 nm, 615 nm and 0.15.
Consider `CC1=CC(/C=C/c2ccc(OC(F)(F)F)cc2)=[N+]2C1=C(CCN)c1cccn1[B-]2(F)F` [BDM-68], for which, in data set [1], the “λmax (ABS)” value was 551 nm and the “λmax (EM)” value is 561 nm. For the same molecule, the “φ (quantum yield)” value in data set [2] is listed as 0.63.
In the same order, the values of `COc1ccc2c(OC)ccc(/C=C/C3=[N+]4C(=C(CCN)c5cccn5[B-]4(F)F)C(C)=C3)c2c1` [BDM-70] are 582 nm, 642 nm and 0.13.
In the same order, the values of `CC1=CC(/C=C/c2cc(Br)ccc2O)=[N+]2C1=C(CCN)c1cccn1[B-]2(F)F` [BDM-73] are 561 nm, 575 nm and 0.28.

Values taken from patent publication US9267949B2, “Alkylamino BODIPY dyes as selective fluorescent probes for proteins and mouse embryonic stem cells” (National University of Singapore, priority 2011, dated 2016).
